# Active and inactive are the calls of the source. The calls are words filed in the database; no cut-off is given here.
# What was measured:
# [1] = Drug uptake BALB/c mouse xenografted with mouse 4T1 cells assessed as increase in fluorescence signal in tumor at 5 mg/kg,IT(Intratumoral) and measured for 1 to 6 hrs by fluorescence imaging analysis; type: ADME, organism-based, Neoplasm; conditions: in vivo, other, time 1-6 hrs
# [2] = Stability of compound in various pH; type: physicochemical
# [3] = Toxicity in BALB/c mouse xenografted with mouse 4T1 cells assessed as tissue destruction with large spaces in tumor at 5 mg/kg,IT(Intratumoral) for 14 days followed by photoirradiation with 500 to 700nm light (0.5 W) for 6 hrs by Hematoxylin and Eosin staining based microscopy; type: organism-based; conditions: in vivo, other, 342 h, time 14.25 day
# [4] = Toxicity in BALB/c mouse xenografted with mouse 4T1 cells assessed as histopathological lesion in heart at 5 mg/kg,IT(Intratumoral) for 14 days by Hematoxylin and Eosin staining based microscopy; type: organism-based; conditions: in vivo, other, 336 h, time 14 day
# [5] = Stability of compound in H2O2 at 10 uM incubated for 30 mins by fluorescence assay; type: physicochemical; conditions: 0.5 h
# [6] = Toxicity in BALB/c mouse xenografted with mouse 4T1 cells assessed as histopathological lesion in spleen at 5 mg/kg,IT(Intratumoral) for 14 days by Hematoxylin and Eosin staining based microscopy; type: organism-based; conditions: in vivo, other, 336 h, time 14 day
# [7] = Stability of compound in gamma-glutamyl transpeptidase at 10 uM incubated for 30 mins by fluorescence assay; type: physicochemical; conditions: 0.5 h
# [8] = Toxicity in BALB/c mouse xenografted with mouse 4T1 cells assessed as histopathological lesion in kidney at 5 mg/kg,IT(Intratumoral) for 14 days by Hematoxylin and Eosin staining based microscopy; type: organism-based; conditions: in vivo, other, 336 h, time 14 day
# [9] = Toxicity in BALB/c mouse xenografted with mouse 4T1 cells assessed as tissue destruction with large spaces in heart at 5 mg/kg,IT(Intratumoral) for 14 days followed by photoirradiation with 500 to 700nm light (0.5 W) for 6 hrs by Hematoxylin and Eosin staining based microscopy; type: organism-based; conditions: in vivo, other, 342 h, time 14.25 day
# [10] = Drug metabolism in human MDA-MB-231 cells assessed as increase in SR expression at 5 uM incubated for 2 hrs by flow cytometry analysis; type: ADME, cell-based; conditions: mda-mb-231, 2 h
# [11] = tested on: 4T1; assay: Antitumor activity against mouse 4T1 cells xenografted in BALB/c mouse assessed as tumor growth inhibition at 5 mg/kg,IT(Intratumoral) for 14 days followed by photoirradiation with 500 to 700nm light (0.5 W) for 6 hrs; type: functional, organism-based; conditions: time 14.25 day
# [12] = Drug uptake in tumor BALB/c mouse xenografted with mouse 4T1 cells at 5 mg/kg,IT(Intratumoral) and measured after 6 hrs by fluorescence imaging analysis; type: ADME, organism-based, Neoplasm; conditions: in vivo, other
# [13] = Drug uptake in spleen of BALB/c mouse xenografted with mouse 4T1 cells at 5 mg/kg,IT(Intratumoral) and measured after 6 hrs by fluorescence imaging analysis; type: ADME, organism-based; conditions: in vivo, other
# [14] = Toxicity in BALB/c mouse xenografted with mouse 4T1 cells assessed as tissue destruction with large spaces in kidney at 5 mg/kg,IT(Intratumoral) for 14 days followed by photoirradiation with 500 to 700nm light (0.5 W) for 6 hrs by Hematoxylin and Eosin staining based microscopy; type: organism-based; conditions: in vivo, other, 342 h, time 14.25 day
# [15] = Induction of singlet oxygen production in ethanol assessed as singlet oxygen quantum yield at 410nm under photoirradiation with 550nm and 10 mW/cm^2 LED light for 10 to 80 secs by DPBF based microplate reader analysis; type: functional; conditions: time 10-80 sec
# [16] = Drug uptake in liver of BALB/c mouse xenografted with mouse 4T1 cells at 5 mg/kg,IT(Intratumoral) and measured after 6 hrs by fluorescence imaging analysis; type: ADME, organism-based; conditions: in vivo, other
# [17] = Toxicity in BALB/c mouse xenografted with mouse 4T1 cells assessed as histopathological lesion in tumor at 5 mg/kg,IT(Intratumoral) for 14 days by Hematoxylin and Eosin staining based microscopy; type: organism-based; conditions: in vivo, other, 336 h, time 14 day
# [18] = Drug uptake in kidney of BALB/c mouse xenografted with mouse 4T1 cells at 5 mg/kg,IT(Intratumoral) and measured after 6 hrs by fluorescence imaging analysis; type: ADME, organism-based; conditions: in vivo, other
# [19] = Toxicity in BALB/c mouse xenografted with mouse 4T1 cells assessed as body weight change at 5 mg/kg,IT(Intratumoral) for 14 days followed by photoirradiation with 500 to 700nm light (0.5 W) for 6 hrs; type: organism-based; conditions: in vivo, other, 342 h, time 14.25 day
# [20] = Drug metabolism in carboxylesterase (unknown origin) assessed as formation of active photosensitizer 6-amino-5-iodo-1H-phenalen-1-one at 10 uM under by LC-MS/MS analysis assay; type: ADME; conditions: human
# [21] = tested on: 4T1; assay: Anticancer activity against mouse 4T1 cells assessed as reduction in cell viability preincubated for 2 hrs followed by photoirradiation with 500 to 700nm and 12 J/cm^2 LED light for 24 hrs by CCK-8 assay; type: functional, cell-based; conditions: 4T1, light or radiation study
# [22] = Toxicity in BALB/c mouse xenografted with mouse 4T1 cells assessed as histopathological lesion in lung at 5 mg/kg,IT(Intratumoral) for 14 days by Hematoxylin and Eosin staining based microscopy; type: organism-based; conditions: in vivo, other, 336 h, time 14 day
# [23] = Toxicity in BALB/c mouse xenografted with mouse 4T1 cells assessed as tissue destruction with large spaces in spleen at 5 mg/kg,IT(Intratumoral) for 14 days followed by photoirradiation with 500 to 700nm light (0.5 W) for 6 hrs by Hematoxylin and Eosin staining based microscopy; type: organism-based; conditions: in vivo, other, 342 h, time 14.25 day
# [24] = Drug metabolism in carboxylesterase (unknown origin) assessed as formation of active photosensitizer 6-amino-5-iodo-1H-phenalen-1-one by measuring increase in fluorescence at 610nM at 10 uM under by fluorescence assay; type: ADME; conditions: human
# [25] = tested on: 4T1; assay: Anticancer activity against mouse 4T1 cells assessed as fold increase in gamma-H2A.X protein expression at 1 uM preincubated for 2 hrs followed by photoirradiation with 500 to 700nm and 12 J/cm^2 LED light and measured after 24 hrs by Western blot analysis relative to control; type: functional; conditions: time 26 hrs
# [26] = tested on: 4T1; assay: Anticancer activity against mouse 4T1 cells assessed as fold increase in cleaved caspase-3 protein expression at 1 uM preincubated for 2 hrs followed by photoirradiation with 500 to 700nm and 12 J/cm^2 LED light and measured after 24 hrs by Western blot analysis relative to control; type: functional; conditions: time 26 hrs
# [27] = Drug metabolism in human MDA-MB-231 cells assessed as increase in carboxylesterase mediated SR release at 5 uM incubated for 2 hrs by confocal laser scanning microscopy; type: ADME, cell-based; conditions: mda-mb-231, 2 h
# [28] = Drug uptake BALB/c mouse xenografted with mouse 4T1 cells assessed as increase in fluorescence signal in tumor at 5 mg/kg,IT(Intratumoral) and measured for 6 to 24 hrs by fluorescence imaging analysis; type: ADME, organism-based, Neoplasm; conditions: in vivo, other, time 6-24 hrs
# [29] = Toxicity in BALB/c mouse xenografted with mouse 4T1 cells assessed as histopathological lesion in liver at 5 mg/kg,IT(Intratumoral) for 14 days by Hematoxylin and Eosin staining based microscopy; type: organism-based; conditions: in vivo, other, 336 h, time 14 day
# [30] = Toxicity in BALB/c mouse xenografted with mouse 4T1 cells assessed as tissue destruction with large spaces in lung at 5 mg/kg,IT(Intratumoral) for 14 days followed by photoirradiation with 500 to 700nm light (0.5 W) for 6 hrs by Hematoxylin and Eosin staining based microscopy; type: organism-based; conditions: in vivo, other, 342 h, time 14.25 day
# [31] = Drug uptake BALB/c mouse xenografted with mouse 4T1 cells assessed as maximum fluorescence intensity in tumor at 5 mg/kg,IT(Intratumoral) and measured at 6 hrs by fluorescence imaging analysis; type: ADME, organism-based, Neoplasm; conditions: in vivo, other
structure (smiles),measurement,setting,value
O=C(CCl)Nc1c(I)cc2c3c(cccc13)C(=O)C=C2,Drug uptake,[1],Active
same,Stability,[2],Stable
same,Activity,[3],Toxic
same,Activity,[4],Non-Toxic
same,Stability,[5],Stable
same,Activity,[6],Non-Toxic
same,Stability,[7],Stable
same,Activity,[8],Non-Toxic
same,Activity,[9],Toxic
same,Drug metabolism,[10],Metabolite_Detected
same,Activity,[11],Active
same,Drug uptake,[12],Active
same,Drug uptake,[13],Not Active
same,Activity,[14],Toxic
same,Activity,[15],0.09
same,Drug uptake,[16],Active
same,Activity,[17],Non-Toxic
same,Drug uptake,[18],Active
same,Activity,[19],Toxic
same,Drug metabolism,[20],Metabolite_Detected
same,IC50,[21],1.31 µM
same,Activity,[22],Non-Toxic
same,Activity,[23],Toxic
same,Drug metabolism,[24],Metabolite_Detected
same,fold change (FC),[25],2.12
same,fold change (FC),[26],3.45
same,Drug metabolism,[27],Metabolite_Detected
same,Drug uptake,[28],Not Active
same,Activity,[29],Non-Toxic
same,Activity,[30],Toxic
same,Drug uptake,[31],Active

# Reference: ChEMBL document CHEMBL5321227, “Lysosome-targeting phenalenones as efficient type I/II photosensitizers for anticancer photodynamic therapy” (Eur J Med Chem, 2023)
